In experiment [1] the target is Adenosine receptor A2a (Homo sapiens) (UniProt P29274). Put plainly: Agonist activity at recombinant human adenosine A2A receptor assessed as induction of cAMP levels at 10 uM by HTRF assay relative to agonist. The experiment is classed as functional. Background: cAMP levels reflect the balance of adenylyl cyclase and phosphodiesterase activity.
For experiment [2], the target named is T1, Substance-K receptor (Homo sapiens) (UniProt P21452).
T1 sequence (whole entry): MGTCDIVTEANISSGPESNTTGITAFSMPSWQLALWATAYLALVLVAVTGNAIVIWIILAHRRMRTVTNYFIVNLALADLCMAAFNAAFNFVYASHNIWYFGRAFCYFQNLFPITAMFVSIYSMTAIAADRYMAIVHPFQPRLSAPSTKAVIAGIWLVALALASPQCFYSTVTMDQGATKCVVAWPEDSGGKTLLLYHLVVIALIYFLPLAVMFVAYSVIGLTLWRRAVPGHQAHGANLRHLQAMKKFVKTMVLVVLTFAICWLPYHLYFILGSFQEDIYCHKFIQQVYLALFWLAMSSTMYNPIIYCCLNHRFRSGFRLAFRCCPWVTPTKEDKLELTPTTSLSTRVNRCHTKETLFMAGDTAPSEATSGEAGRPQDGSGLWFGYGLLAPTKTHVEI
Put plainly: Agonist activity at recombinant human NK2R assessed at 10 uM by aequorin reporter based assay relative to agonist. In kind it is functional.

Experiment [3] has as its target Substance-P receptor (Homo sapiens) (UniProt P25103). Put plainly: Agonist activity at recombinant human NK1R at 10 uM by aequorin reporter based assay relative to agonist. The experiment is classed as functional.
The target of experiment [4] is Adenosine receptor A2a (Homo sapiens) (UniProt P29274). Put plainly: Antagonist activity at recombinant human adenosine A2A receptor assessed as inhibition of agonist-induced cAMP induction at 10 uM by HTRF assay. The experiment is classed as functional. Background: Time-resolved FRET reads energy transfer from a long-lived donor to a nearby acceptor.
In experiment [5] the target is T2, Endothelin-1 receptor (Homo sapiens) (UniProt P25101).
T2 sequence (whole entry): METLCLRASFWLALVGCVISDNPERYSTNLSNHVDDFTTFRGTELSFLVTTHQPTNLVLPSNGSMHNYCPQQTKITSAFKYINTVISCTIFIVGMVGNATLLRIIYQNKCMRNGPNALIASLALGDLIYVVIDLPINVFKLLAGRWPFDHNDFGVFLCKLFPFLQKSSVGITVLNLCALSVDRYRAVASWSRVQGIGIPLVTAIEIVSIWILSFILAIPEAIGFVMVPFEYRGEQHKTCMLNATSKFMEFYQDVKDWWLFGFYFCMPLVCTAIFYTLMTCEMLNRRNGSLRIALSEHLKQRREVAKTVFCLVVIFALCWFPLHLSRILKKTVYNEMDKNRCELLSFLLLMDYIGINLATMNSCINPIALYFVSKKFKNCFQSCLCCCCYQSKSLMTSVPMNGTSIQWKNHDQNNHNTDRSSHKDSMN
Nature of the experiment: Agonist activity at recombinant human ETA receptor at 10 uM by aequorin reporter based assay relative to agonist. In kind it is functional.

For experiment [6], the target named is Cannabinoid receptor 1 (Homo sapiens) (UniProt P21554). Put plainly: Agonist activity at recombinant human CB1 receptor […] at 10 uM by HTRF assay relative to agonist. The experiment is classed as functional.
Chain of Cannabinoid receptor 1 (Homo sapiens) (P21554 whole entry): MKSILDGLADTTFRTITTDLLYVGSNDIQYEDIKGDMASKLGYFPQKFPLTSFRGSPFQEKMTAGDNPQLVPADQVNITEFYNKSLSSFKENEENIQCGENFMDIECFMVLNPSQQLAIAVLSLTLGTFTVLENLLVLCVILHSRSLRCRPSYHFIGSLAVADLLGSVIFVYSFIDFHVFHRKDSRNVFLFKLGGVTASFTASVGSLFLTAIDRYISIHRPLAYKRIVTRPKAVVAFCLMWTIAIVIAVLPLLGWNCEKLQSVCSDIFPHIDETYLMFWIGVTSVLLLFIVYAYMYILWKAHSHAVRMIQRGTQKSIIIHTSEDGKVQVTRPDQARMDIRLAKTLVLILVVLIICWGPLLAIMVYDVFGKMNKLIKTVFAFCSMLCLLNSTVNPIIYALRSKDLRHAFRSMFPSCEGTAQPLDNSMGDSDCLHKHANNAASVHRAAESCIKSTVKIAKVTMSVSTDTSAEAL
The target in experiment [7] is D(2) dopamine receptor (Homo sapiens) (UniProt P14416). Put plainly: Agonist activity at recombinant human dopamine D2L receptor at 10 uM by GTPgamma[35S] binding-based assay relative to agonist. On the technique in general: GTPγS is a poorly hydrolysed GTP analogue; its binding reports G protein activation.
Chain of D(2) dopamine receptor (Homo sapiens) (P14416 whole entry): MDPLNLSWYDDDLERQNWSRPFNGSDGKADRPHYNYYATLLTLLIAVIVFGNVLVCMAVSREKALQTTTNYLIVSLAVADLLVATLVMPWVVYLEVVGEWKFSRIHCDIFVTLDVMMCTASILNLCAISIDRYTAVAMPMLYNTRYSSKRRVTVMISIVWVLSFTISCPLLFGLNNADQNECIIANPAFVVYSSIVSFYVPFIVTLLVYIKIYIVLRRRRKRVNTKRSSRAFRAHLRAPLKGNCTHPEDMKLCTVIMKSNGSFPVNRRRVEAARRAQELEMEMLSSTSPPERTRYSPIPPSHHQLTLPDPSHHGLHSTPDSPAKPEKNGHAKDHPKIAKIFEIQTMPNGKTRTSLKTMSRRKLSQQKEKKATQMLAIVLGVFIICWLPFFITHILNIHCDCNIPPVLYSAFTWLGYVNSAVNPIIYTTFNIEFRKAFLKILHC
Experiment [8] deals with T3, Cholecystokinin receptor type A (Homo sapiens) (UniProt P32238).
T3 sequence (whole entry): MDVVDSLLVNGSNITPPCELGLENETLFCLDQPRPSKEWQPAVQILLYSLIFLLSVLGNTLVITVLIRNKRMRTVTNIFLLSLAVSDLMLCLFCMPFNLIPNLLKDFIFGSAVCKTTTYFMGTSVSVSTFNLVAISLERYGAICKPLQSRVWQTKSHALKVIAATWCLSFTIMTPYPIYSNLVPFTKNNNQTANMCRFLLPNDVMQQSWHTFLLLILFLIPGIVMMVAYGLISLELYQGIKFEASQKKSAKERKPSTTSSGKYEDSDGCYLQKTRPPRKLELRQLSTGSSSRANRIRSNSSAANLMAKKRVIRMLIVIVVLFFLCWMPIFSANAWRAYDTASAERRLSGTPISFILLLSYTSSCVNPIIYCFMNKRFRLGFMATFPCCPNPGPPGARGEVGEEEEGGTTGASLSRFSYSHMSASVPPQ
Nature of the experiment: Agonist activity at recombinant human […] receptor at 10 uM by aequorin reporter based assay relative to agonist. In kind it is functional.

Experiment [9] has as its target Histamine H1 receptor (Homo sapiens) (UniProt P35367). Nature of the experiment: Antagonist activity at recombinant human histamine H1 receptor assessed as inhibition of agonist-induced effect at 10 uM by aequorin reporter based assay. The experiment is classed as functional.
Experiment [10] deals with Somatostatin receptor type 4 (Homo sapiens) (UniProt P31391). Nature of the experiment: Antagonist activity at human somatostatin receptor 4 assessed as inhibition of agonist-induced effect at 10 uM by GTPgamma[35S] binding-based assay. The experiment is classed as functional.
Chain of Somatostatin receptor type 4 (Homo sapiens) (P31391 whole entry): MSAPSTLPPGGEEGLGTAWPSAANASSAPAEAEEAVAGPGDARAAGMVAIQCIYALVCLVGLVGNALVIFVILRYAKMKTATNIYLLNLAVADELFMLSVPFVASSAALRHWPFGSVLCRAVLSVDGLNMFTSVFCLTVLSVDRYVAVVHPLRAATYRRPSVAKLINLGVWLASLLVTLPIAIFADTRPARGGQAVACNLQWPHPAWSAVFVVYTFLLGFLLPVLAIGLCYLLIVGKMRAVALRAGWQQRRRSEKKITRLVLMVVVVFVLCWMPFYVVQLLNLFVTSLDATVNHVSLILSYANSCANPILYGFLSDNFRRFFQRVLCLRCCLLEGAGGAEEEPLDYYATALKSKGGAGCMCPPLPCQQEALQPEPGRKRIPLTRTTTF
Experiment [11] addresses T4, Adenosine receptor A3 (Homo sapiens) (UniProt P0DMS8).
T4 sequence (whole entry): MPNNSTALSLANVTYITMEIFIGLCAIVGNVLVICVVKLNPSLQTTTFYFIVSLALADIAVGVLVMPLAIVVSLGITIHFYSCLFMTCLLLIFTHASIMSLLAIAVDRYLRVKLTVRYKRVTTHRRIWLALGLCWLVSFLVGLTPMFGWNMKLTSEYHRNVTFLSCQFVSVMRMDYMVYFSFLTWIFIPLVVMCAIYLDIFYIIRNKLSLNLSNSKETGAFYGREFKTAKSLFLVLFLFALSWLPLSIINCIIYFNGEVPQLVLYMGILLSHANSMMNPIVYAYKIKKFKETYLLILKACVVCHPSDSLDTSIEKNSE
Put plainly: Agonist activity at recombinant human adenosine A3 receptor […] at 10 uM by HTRF assay relative to agonist. In kind it is functional.

The target of experiment [12] is T5, Alpha-1B adrenergic receptor (Homo sapiens) (UniProt P35368).
T5 sequence (whole entry): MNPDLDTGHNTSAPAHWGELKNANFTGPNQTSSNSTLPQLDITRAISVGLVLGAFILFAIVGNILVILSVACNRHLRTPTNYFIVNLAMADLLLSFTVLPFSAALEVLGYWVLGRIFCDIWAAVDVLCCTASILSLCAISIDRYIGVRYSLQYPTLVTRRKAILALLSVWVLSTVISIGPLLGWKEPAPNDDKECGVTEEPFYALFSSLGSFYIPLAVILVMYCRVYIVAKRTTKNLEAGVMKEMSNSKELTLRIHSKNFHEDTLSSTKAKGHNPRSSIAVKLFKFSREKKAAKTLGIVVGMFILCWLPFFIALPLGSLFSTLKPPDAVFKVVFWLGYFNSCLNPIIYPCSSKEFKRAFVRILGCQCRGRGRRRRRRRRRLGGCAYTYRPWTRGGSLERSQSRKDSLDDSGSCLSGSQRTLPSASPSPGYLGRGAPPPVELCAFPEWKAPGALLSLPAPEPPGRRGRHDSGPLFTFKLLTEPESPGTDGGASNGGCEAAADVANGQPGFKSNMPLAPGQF
Put plainly: Antagonist activity at recombinant human alpha-1b adrenergic receptor assessed as inhibition of agonist-induced […] reporter based assay. In kind it is functional.

Chain of Adenosine receptor A2a (Homo sapiens) (P29274 whole entry): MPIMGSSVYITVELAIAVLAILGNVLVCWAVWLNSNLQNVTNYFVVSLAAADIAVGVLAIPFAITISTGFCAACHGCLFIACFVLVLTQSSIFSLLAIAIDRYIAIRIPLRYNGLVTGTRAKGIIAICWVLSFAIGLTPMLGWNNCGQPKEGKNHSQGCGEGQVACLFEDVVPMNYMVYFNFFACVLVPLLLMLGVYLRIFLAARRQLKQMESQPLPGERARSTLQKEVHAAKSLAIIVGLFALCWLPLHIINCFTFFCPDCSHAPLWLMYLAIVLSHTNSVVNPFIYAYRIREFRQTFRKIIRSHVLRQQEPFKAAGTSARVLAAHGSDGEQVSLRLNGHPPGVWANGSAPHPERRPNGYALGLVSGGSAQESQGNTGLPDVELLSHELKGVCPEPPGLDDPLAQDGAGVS
Chain of Histamine H1 receptor (Homo sapiens) (P35367 whole entry): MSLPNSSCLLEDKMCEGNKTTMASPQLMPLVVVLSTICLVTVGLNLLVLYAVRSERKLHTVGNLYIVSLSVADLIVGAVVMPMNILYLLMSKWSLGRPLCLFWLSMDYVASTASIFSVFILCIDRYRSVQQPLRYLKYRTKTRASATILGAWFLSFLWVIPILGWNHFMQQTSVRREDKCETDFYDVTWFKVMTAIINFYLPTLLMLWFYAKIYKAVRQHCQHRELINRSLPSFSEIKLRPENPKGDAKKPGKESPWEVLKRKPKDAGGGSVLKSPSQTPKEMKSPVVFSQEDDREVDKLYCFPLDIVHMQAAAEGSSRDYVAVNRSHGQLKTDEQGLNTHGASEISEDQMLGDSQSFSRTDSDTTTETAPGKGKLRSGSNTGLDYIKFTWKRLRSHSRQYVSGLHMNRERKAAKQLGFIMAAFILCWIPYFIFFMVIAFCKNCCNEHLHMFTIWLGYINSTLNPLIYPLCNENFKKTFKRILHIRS
Chain of Substance-P receptor (Homo sapiens) (P25103 whole entry): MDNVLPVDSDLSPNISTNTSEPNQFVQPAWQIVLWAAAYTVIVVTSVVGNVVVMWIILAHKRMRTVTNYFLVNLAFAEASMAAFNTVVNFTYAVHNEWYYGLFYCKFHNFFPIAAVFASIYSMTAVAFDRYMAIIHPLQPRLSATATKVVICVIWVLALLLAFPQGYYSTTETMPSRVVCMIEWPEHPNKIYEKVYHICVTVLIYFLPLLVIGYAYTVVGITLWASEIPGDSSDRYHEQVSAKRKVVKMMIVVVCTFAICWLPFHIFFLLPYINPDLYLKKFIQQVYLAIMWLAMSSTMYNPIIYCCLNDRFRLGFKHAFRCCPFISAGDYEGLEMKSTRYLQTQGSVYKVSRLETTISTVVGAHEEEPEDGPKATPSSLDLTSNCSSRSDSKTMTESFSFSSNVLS

Regarding `CN(CCCNC(=O)c1ccc([N+](=O)[O-])cc1)Cc1ccccc1`, the Activity in experiment [1] was -11%; in experiment [2], 0%; in experiment [3] it was 0%; in [5], -1%; in experiment [6], 3%; in experiment [7] it was 20%. For the same compound, the Activity in [8] and in experiment [11] was -1% each time. Moreover, the inhibition – broadly, the relative decrease from the control value, in per cent – in [4] is -3%; in experiment [9] it was 21%; in [10] it was 15%; in [12], 63%.
`CN(CCCNC(=O)c1ccc(Cl)cc1)Cc1ccccc1`: the Activity was -3% in [1]; 0% in experiment [2]; 0% in experiment [3]; 0% in experiment [5]; 3% in experiment [6]; -3% in experiment [7]. The figures for the Activity in [8] and in experiment [11] were -1% and -4%, respectively. For the same compound, the inhibition was -4% in experiment [4], 34% in [9], 20% in experiment [10] and 73% in [12].

These data come from ChEMBL document CHEMBL4130363, “Synthesis and pharmacological evaluation of benzamide derivatives as potent and selective sigma-1 protein ligands” (Eur J Med Chem, 2017).
